# Experimental data as given in article PMC6642116, “Structural and functional analyses of hepatitis B virus X protein BH3-like domain and Bcl-xL interaction” (Nature Communications, 2019).
# Key:
# Format in all cases: cell-based
# HBV in HepG2.2.15 cells = assay: Inhibition of HBV in HepG2.2.15 cells by PEP-1 delivered peptides; settings: for HBV DNA: HepG2.2.15 culture medium, peptide via PEP-1, 48 h; for HBsAg in culture medium: HepG2.2.15, peptide via PEP-1, 48 h
# Procedure: (§1) Fig. 6 The HBx-aa118–127 peptide, but not ABT-263, inhibits HBV replication and transcription in HepG2.2.15 cells. a HepG2.2.15 cells were treated with 125, 250, 500, and 1000 nM of ABT-263 for 2 days. Cytoplasmic HBV viral particles were isolated and the viral DNA replication intermediates were quantified (Methods). The results represent the fold change of the replicative intermediates in HepG2.2.15 cells from the indicated treatments, compared with those without treatment. b HepG2.2.15 cells were treated with the indicated concentrations of ABT-263 for 2 days. The lysate was analyzed by immunoblotting using antibodies to caspase-3 (CASP3) and GAPDH (glyceraldehyde 3-phosphate dehydrogenase). c, d The HBx-aa113–135, HBx-aa118–127, or the control peptides were delivered into HepG2.2.15 cells using PEP-1 nanoparticles (Methods). The levels of HBV DNA (c) and the levels of HBV S-antigen (HBsAg) expression (d) in culture medium collected from HepG2.2.15 cells were measured (Methods). The results are shown as fold change compared to that of the control peptide. e–g HepG2-NTCP cells were transfected with HBx118–127 peptide with concentration of […], and 50 μg/ml or unrelated control peptide during HBV infection (multiplicity of infection (MOI) = 200), respectively. e HBV e-antigen (HBeAg), f HBV DNA, and g cell viability were measured at day 8 after HBV infection. Data shown represent mean ± SD. Significance is indicated on the top. Not significant (ns): *P < 0.05, **P < 0.01; two-tailed unpaired t tests (n = 3 biologically independent samples). Source data are provided as a Source Data file
# To evaluate the potential inhibitory effects of peptides on HBV replication and transcription in HepG2.2.15 cells, HepG2.2.15 cells were pre-seeded 24 h before peptides treatment. HBx-aa113–135, HBx-aa118–127, or control peptide was transfected through pep-1 carriers and incubated for additional 48 h without the removal of peptides. The culture media of HepG2.2.15 cells were then harvested for analysis.
# (§2) The levels of HBsAg, HBeAg, and HBcAg expression were measured by chemiluminescence, using Commercial Assay Kit (Wantai, Beijing, China). Northern blot analysis of HBV RNA, Southern blot analysis of HBV DNA, and real-time PCR quantification of HBV DNA are described in the Supplementary Methods.
# HBV in HepG2-NTCP cells = assay: Inhibition of HBV infection in HepG2-NTCP cells by HBx118–127; settings: unrelated control peptide, MOI 200, day 8
# Procedure: We took advantage of the structural information of the HBx-aa113–135/Bcl-xL complex to develop potential HBV inhibitors. […] BH3-only mimetics, […] and ABT-737, were included as controls. […] We also used HBV-infected HepG2-NTCP cells to evaluate the inhibitory effect of the HBx-aa118–127 peptide on HBV replication, by treating the cells with the peptide at 12.5, 50, and 200 µg/ml concentrations, respectively.
# Cytoplasmic HBV viral particles were isolated and the viral DNA replication intermediates were quantified (Methods). […] The lysate was analyzed by immunoblotting using antibodies to caspase-3 (CASP3) and GAPDH (glyceraldehyde 3-phosphate dehydrogenase). c, d The HBx-aa113–135, HBx-aa118–127, or the control peptides were delivered into HepG2.2.15 cells using PEP-1 nanoparticles (Methods). The levels of HBV DNA (c) and the levels of HBV S-antigen (HBsAg) expression (d) in culture medium collected from HepG2.2.15 cells were measured (Methods). […] Data shown represent mean ± SD. Significance is indicated on the top. Not significant (ns): *P < 0.05, **P < 0.01; two-tailed unpaired t tests (n = 3 biologically independent samples). Source data are provided as a Source Data file
# as §2
# HepG2-NTCP cells = assay: Cell viability (CCK8 assay) of HBV-infected HepG2-NTCP cells; parameters: Cell viability: unit not given here; settings: CCK8, unrelated control peptide, day 8
# Procedure: as §1
# HBx-aa118-127 peptide treatment.
# obvious cytotoxicity at concentrations between 12.5-200 µg/mL (Fig. 6g). Taken together, […]
substance,measurement,setting,value
"SSTTSTGPCKTCTTPAQGTSMFP-K-biotin [Control, equal-length unrelated control biotin-labeled peptide]",HBV DNA,HBV in HepG2.2.15 cells; replicate 1,0.944 fold-change to control
same,HBV DNA,HBV in HepG2.2.15 cells; replicate 2,1.019 fold-change to control
same,HBV DNA,HBV in HepG2.2.15 cells; replicate 3,1.037 fold-change to control
same,HBsAg in culture medium,HBV in HepG2.2.15 cells; replicate 1,1.097 fold-change to control
same,HBsAg in culture medium,HBV in HepG2.2.15 cells; replicate 2,0.872 fold-change to control
same,HBsAg in culture medium,HBV in HepG2.2.15 cells; replicate 3,1.030 fold-change to control
same,"HBV DNA, HepG2-NTCP cell",HBV in HepG2-NTCP cells; replicate 1,0.996 fold-change to control
same,"HBeAg, HepG2-NTCP cell",HBV in HepG2-NTCP cells; replicate 1,1.091 fold-change to control
same,"HBV DNA, HepG2-NTCP cell",HBV in HepG2-NTCP cells; replicate 2,0.822 fold-change to control
same,"HBeAg, HepG2-NTCP cell",HBV in HepG2-NTCP cells; replicate 2,1.003 fold-change to control
same,"HBV DNA, HepG2-NTCP cell",HBV in HepG2-NTCP cells; replicate 3,1.182 fold-change to control
same,"HBeAg, HepG2-NTCP cell",HBV in HepG2-NTCP cells; replicate 3,0.906 fold-change to control
same,Cell viability,HepG2-NTCP cells; replicate 1,102.557
same,Cell viability,HepG2-NTCP cells; replicate 2,97.209
same,Cell viability,HepG2-NTCP cells; replicate 3,100.234
